From PubChem BioAssay (NCI)
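Dose response: 5 concentrations. Exposure: 48 h. Format: 96-well plates. Endpoint: linear interpolation; highest concentration if not reached. The concentration for 50% growth inhibition is given as GI50. TGI is the concentration that stops growth completely.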

Tests used:
Experiment in all cases: inhibition of tumour cell growth, NCI panel, 48 h
UO-31 renal = tested on: UO-31 renal
NCI-H460 lung = tested on: NCI-H460 lung
UACC-257 melanoma = tested on: UACC-257 melanoma
CCRF-CEM leukemia = tested on: CCRF-CEM leukemia
SNB-75 CNS = tested on: SNB-75 CNS
UACC-62 melanoma = tested on: UACC-62 melanoma
SF-539 CNS = tested on: SF-539 CNS
KM12 colon = tested on: KM12 colon
HS 578T breast = tested on: HS 578T breast
HCT-15 colon = tested on: HCT-15 colon

| SMILES | GI50 (UO-31 renal) | TGI (UO-31 renal) | GI50 (NCI-H460 lung) | TGI (NCI-H460 lung) | GI50 (UACC-257 melanoma) | TGI (UACC-257 melanoma) | GI50 (CCRF-CEM leukemia) | TGI (CCRF-CEM leukemia) | GI50 (SNB-75 CNS) | TGI (SNB-75 CNS) | GI50 (UACC-62 melanoma) | TGI (UACC-62 melanoma) | GI50 (SF-539 CNS) | TGI (SF-539 CNS) | GI50 (KM12 colon) | TGI (KM12 colon) | GI50 (HS 578T breast) | TGI (HS 578T breast) | GI50 (HCT-15 colon) | TGI (HCT-15 colon) |
| --- | --- | --- | --- | --- | --- | --- | --- | --- | --- | --- | --- | --- | --- | --- | --- | --- | --- | --- | --- | --- |
| CN1C(=O)CNC(=O)[C@H](NC(=O)c2nc3ccccc3cc2O)CSSC[C@H]1C(=O)NCCc1nc2ccccc2cc1O | 13.7 µM | 46.1 µM | 1.15 µM | > 35.2 µM | 17.1 µM | 72.9 µM | 3.25 µM | > 52.7 µM | 15 µM | 33.9 µM | 7.64 µM | 38.6 µM | 15.2 µM | 39.1 µM | 0.96 µM | 47.7 µM | 21.5 µM | 67 µM | 20.7 µM | > 62.5 µM |
| O=C1/C(=C/c2ccccc2Cl)N=C(c2ccccc2)N1Cc1ccco1 | 55.4 µM | > 100 µM | 42.6 µM | > 100 µM | 21.2 µM | 39.8 µM | 5.35 µM | > 100 µM | 50.3 µM | > 100 µM | 12.6 µM | 34.7 µM | 63.8 µM | > 100 µM | 36.1 µM | > 100 µM | 72.8 µM | > 100 µM | 25.5 µM | > 100 µM |
| ClCCN(CCCl)c1ccc(-n2cnc3c(Cl)ncnc32)cc1 | 1.7 µM | 3.34 µM | 2.14 µM | 4.88 µM | 2.24 µM | 5.16 µM | 3.05 µM | > 100 µM | 2.06 µM | 7.37 µM | 1.81 µM | 3.35 µM | 5.23 µM | 19 µM | 6.16 µM | 19.5 µM | 2.95 µM | 9.79 µM | 1.79 µM | 3.65 µM |
| CCC(Sc1nnc2c3ccccc3n(CC)c2n1)C(=O)Nc1ccccc1OC (stereo not given) | 2.12 µM | 6.65 µM | > 100 µM | > 100 µM | > 100 µM | > 100 µM | > 94.9 µM | > 100 µM | 10.8 µM | > 100 µM | > 100 µM | > 100 µM | > 100 µM | > 100 µM | 91.3 µM | > 100 µM | > 100 µM | > 100 µM | 66.8 µM | > 100 µM |
| COc1cc(CSc2nc3ccc(C)cc3c(=O)n2Cc2ccccc2)cc(OC)c1OC | 3.05 µM | > 100 µM | 2.26 µM | > 100 µM | 6.73 µM | > 100 µM | 2.37 µM | > 100 µM | 0.804 µM | 4.21 µM | 2.03 µM | 35.7 µM | 2.26 µM | 8.32 µM | 1.08 µM | > 100 µM | 2.57 µM | 48.8 µM | 0.773 µM | > 100 µM |
| COCCOC(=O)C1=C(C)NC2=C(C(=O)CC(c3ccccc3OC)C2)C1c1cccc(O)c1 (stereo not given) | 3.62 µM | 45.8 µM | 15.5 µM | 42.9 µM | 8.8 µM | 61.1 µM | 11.3 µM | 83.6 µM | 2.43 µM | 30.9 µM | 4.51 µM | 29.3 µM | 11.9 µM | 43.4 µM | 11.5 µM | 30 µM | 2.04 µM | > 26.2 µM | 19.8 µM | > 61.9 µM |
| COc1ccc(C(O)CNC(=O)c2ccccc2)cc1 (stereo not given) | – | – | – | > 100 µM | – | > 100 µM | – | > 100 µM | – | > 100 µM | – | > 100 µM | – | > 100 µM | – | > 100 µM | – | > 100 µM | – | > 100 µM |
| CN1CCN(c2ccc3nc(-c4cc(C(C)(C)C)c(O)c(C(C)(C)C)c4)[nH]c3c2)CC1 | 1.7 µM | 3.08 µM | 1.99 µM | 3.7 µM | 2 µM | 3.97 µM | 2.22 µM | 5.83 µM | 1.42 µM | 3.65 µM | 1.87 µM | 3.38 µM | 1.79 µM | 3.35 µM | 1.8 µM | 4.32 µM | 2.33 µM | 5.51 µM | 1.71 µM | 3.49 µM |
| COc1ccc2c(c1)CC[C@@H]1[C@@H]2CC[C@@]2(C)[C@H]1CC1(CCCCC1)[C@@H]2O | 16.8 µM | 47.2 µM | 3.82 µM | 15.4 µM | 23.6 µM | 47.2 µM | – | – | 16.4 µM | 35.1 µM | 16.4 µM | 31.6 µM | 4.22 µM | 16.6 µM | 7.91 µM | 27.3 µM | 3.59 µM | 10.9 µM | 2.59 µM | 10.2 µM |
| COc1ccc(-c2n[nH]nc2-c2csc3ccccc23)cc1OC | 2.78 µM | 20.8 µM | 3.56 µM | 18.9 µM | 10.9 µM | 55.6 µM | 3.29 µM | 32.9 µM | – | – | 2.77 µM | 22.2 µM | 1.84 µM | 5.79 µM | 2.28 µM | 24.1 µM | 2.25 µM | 10.6 µM | 1.67 µM | 14.7 µM |
| C#C[C@]1(O)CC[C@H]2[C@@H]3CC=C4c5sc(N=C(N)N)nc5CC[C@]4(C)[C@H]3CC[C@@]21C | 0.307 µM | 0.931 µM | 1.05 µM | 2.5 µM | 0.369 µM | 1.4 µM | 0.365 µM | 3.43 µM | 0.152 µM | 1.32 µM | 0.248 µM | 0.657 µM | 0.233 µM | 1.12 µM | 1.1 µM | 2.55 µM | 0.243 µM | 1.11 µM | 0.525 µM | 1.98 µM |
| O=C1OC(c2ccc(O)c(-c3ccccc3)c2)(c2ccc(O)c(-c3ccccc3)c2)c2c(Cl)c(Cl)c(Cl)c(Cl)c21 | – | > 100 µM | – | > 100 µM | – | > 100 µM | – | > 100 µM | – | > 100 µM | – | > 100 µM | – | > 100 µM | – | > 100 µM | – | > 100 µM | – | > 100 µM |
| COc1ccc2[nH]cc(-c3nc(-c4cn(C)c5ccncc45)cs3)c2c1 | 1.8 µM | 3.36 µM | 1.97 µM | 3.67 µM | 16.7 µM | 33.3 µM | 2.33 µM | 6.25 µM | 15.3 µM | 29 µM | 18.5 µM | 37.5 µM | 1.9 µM | 3.37 µM | 1.87 µM | 3.52 µM | 14.7 µM | 41.6 µM | 1.88 µM | 3.92 µM |
